Measured values from patent publication US20160252532A1, “pH-Biosensors Based on Compounds Produced From Pyruvic Acid For Magnetic Resonance Imaging and Spectroscopy and Their Uses” (TECHNISCHE UNIVERSITÄT MÜNCHEN, priority 2013, published 2016).

Columns and labels:
[1] = Stability in aqueous solution; type: physicochemical
Method: An exemplary ^13C spectrum (left column) and ^1H spectrum (right column) of zymonic acid produced from [1-^13C]-pyruvic acid. The relevant peaks 1 to 5, which shift in dependency of the pH value of the sample, are marked. The proton spectra show a buffered solution of zymonic acid in water and D2O, once measured right after preparation of the solution (top right) and 24 h later (bottom right).
The assignment of the NMR-peaks of zymonic acid was done using NMR prediction software (ChemDraw®) and standard 1D- and 2D-NMR-spectroscopy (see FIG. 5). […] The relevant peaks 1 to 5, which shift in dependency of the pH value of the sample, are marked. […] The proton spectra show a buffered solution of zymonic acid in water and D2O, once measured right after preparation of the solution (top right of FIG. 5) and 24 h later (bottom right of FIG. 5).

rat bladder = assay: In vivo pH determination in rat bladder with copolarized zymonic acid and urea; conditions: injection into rat bladder via catheter, 10 mm slice
Source text: FIG. 19. Copolarization of zymonic acid and urea, injection into the rat bladder via a catheter.
A 10 mm slice covering the bladder volume was chosen.
6 injections of copolarized zymonic acid in healthy rats via a catheter directly into the bladder followed by pH-imaging and pH-control of the urine before an after injection by pH-electrode (see FIG. 19).

rats = assay: Toxicity tests in rats; type: in vivo
Method: Toxicity tests with a volume of 5 mL/kg at an injection rate of 0.2 mL/s for three different concentrations (20 mM (A), 40 mM (B), 80 mM (C)). Injection solution contained 80 mM Tris buffer solution, titrated with 1M NaOH to pH 7.4.
20 mM, 40 mM, and 80 mM zymonic acid were injected into 3 rats within one week with 1 day break in between each injection (see FIG. 14).
Blood pressure, heart rate, blood oxygenation and animal temperature were monitored 10 minutes before and after the injection.

HeLa cells = assay: MTT assay cell viability (cytotoxicity test); type: cell-based; conditions: 0.4 to 50 mM, 24 hours, up to tested concentration of 50 mM, ZA 100% pure, OMPD 80% OMPD/20% ZA
Method: MTT assay with HeLa cells for testing cell viability after exposure to (A) OMPD and (B) zymonic acid (ZA) (0.4 to 50 mM) for 24 hours.
(12C, ZA: 100% pure; OMPD: 80% OMPD, 20% ZA).
Purified zymonic acid and OMPD were tested in a MTT assay with HeLa cells for testing cell viability after exposure to each substance at concentrations of 0.4 to 50 mM for 24 hours. After 24 hours incubation time, both substances are not cytotoxic up to the tested concentration of 50 mM.

[2] = cited from earlier work
MCF-7 tumor cells = assay: 13C-OMPD in cell culture medium with MCF-7 tumor cells immobilized in alginate beads (extracellular pH); type: cell-based; conditions: ca. 6 mM fully-labeled 13C-OMPD, ca. 10 Mio. MCF-7 cells, 10 hours
Method: Ten ^13C-spectra (proton decoupled) of ca. 6 mM fully-labeled ^13C-OMPD dissolved in cell culture medium with ca. 10 Mio. MCF-7 tumor cells immobilized in alginate beads were acquired during a total time of 10 hours within every hour.
The pH sensitive OMPD-peaks 1, 5 and 6 of zymonic acid were also observed in ^13C-NMR spectra of ^13C-OMPD dissolved in cell culture medium with MCF-7 tumor cells immobilized in alginate beads.

metabolism within tumor cells (MCF-7 tumor cells)	stability in aqueous solutions [1]	Structure (SMILES)	decomposition in buffered solution ([1]; buffered solution in water and D2O, 24 hours, also cites Montgomery et al., 1956)	agreement of NMR-measured pH with electrode pH (rat bladder)	behaviour of the animals (rats; 20, 40 and 80 mM injections)	survival after injections (rats; 20, 40 and 80 mM, 5 mL/kg, 3 rats, injections within one week)	health problems (rats; 20, 40 and 80 mM, even after 3 days post last injection)	cytotoxicity (cell viability, MTT) (HeLa cells)	pKa of the enolic group [2]
–	–	CC1(C(=O)O)C=C(O)C(=O)O1 (stereo not shown) [zymonic acid, 4-hydroxy-2-methyl-5-oxo-2,5-dihydrofuran-2-carboxylic acid]	slowly decomposed into parapyruvate within a period of 24 hours	Electrode pH measurements confirm the pH values measured by NMR spectroscopy	No unusual behaviour	survived all injections	did not show health problems	not cytotoxic	6.95
not metabolized within tumor cells	stable in aqueous solutions	C/C(=C/C(=O)C(=O)O)C(=O)O [OMPD, (Z)-4-methyl-2-oxopent-3-enedioic acid]	–	–	–	–	–	not cytotoxic	–
